Measured values published in article PMC7031696 (Cell chemical biology, 2019).
pIC50: −log10 of the molar value. Read-outs that look alike come from different tables or passages of the source.

What was measured:
[1] = tested on: Plasmodium falciparum 3D7-A10 parasites; assay: Stage specificity assay (8-h exposure of synchronized stages, IC50^8h); assay type: cell-based; settings: for pIC50: Plasmodium falciparum
[2] = tested on: asynchronous 3D7-A10 parasite cultures; assay: Standard 72-h exposure asexual blood stage susceptibility assay (IC50^72h); assay type: cell-based, Plasmodium falciparum; settings: Plasmodium falciparum, 3D7, 72 h, read-out: Overall (72hr assay) Mean IC50 (IC50^72h)
[3] = tested on: 3D7-MR4 trophozoite parasite-infected RBCs; assay: Metabolomic profiling (hydrophilic metabolite changes, UHPLC-MS); assay type: cell-based, Plasmodium falciparum

SMILES: Cl.c1ccc2c(NCCCCCCNc3c4c(nc5ccccc35)CCCC4)c3c(nc2c1)CCCC3 [MMV019555]
- Ratio lowest IC50 8hr/IC50 72hr ([1]; 3D7-A10): 2.4
- pIC50 ([1]; 3D7, read-out: Early rings Mean IC50 (IC50^8h)): 6.12
- pIC50 ([1]; 3D7, read-out: Early trophozoites Mean IC50 (IC50^8h)): 7.09
- pIC50 ([1]; 3D7, read-out: Late rings Mean IC50 (IC50^8h)): 6.10
- pIC50 ([1]; 3D7, read-out: Late trophozoites Mean IC50 (IC50^8h)): 6.96
- pIC50 ([1]; 3D7, read-out: Schizonts Mean IC50 (IC50^8h)): 6.46
- Stage of peak activity (Figure 6) ([1]; period when the parasite was most susceptible (lowest IC50^8h)): trophozoites
- Peak Activity (Table S1) ([1]; stage(s) with the lowest IC50^8h): Trophs
- pIC50 [2]: 7.48
- peptide levels (hemoglobin catabolism signature) ([3]; 10 × IC50^72h, 2.5 hr, trophozoites): decreased peptide levels
- Log2(fold changes) 3-phosphoglycerate ([3]; metabolite 3-phosphoglycerate, log2 fold change): -0.7704
- Log2(fold changes) 4-Pyridoxic acid ([3]; metabolite 4-Pyridoxic acid, log2 fold change): -0.0064
- Log2(fold changes) 4-aminobutyrate ([3]; metabolite 4-aminobutyrate, log2 fold change): -0.0746
- Log2(fold changes) 4-phosphopantetheine ([3]; metabolite 4-phosphopantetheine, log2 fold change): 0.0000
- Log2(fold changes) 4-phosphopantothenate ([3]; metabolite 4-phosphopantothenate, log2 fold change): -0.0563
- Log2(fold changes) 5-aminopentanoic acid ([3]; metabolite 5-aminopentanoic acid, log2 fold change): 0.0000
- Log2(fold changes) 5-methyl-THF ([3]; metabolite 5-methyl-THF, log2 fold change): 0.0000
- Log2(fold changes) 5-phosphoribosyl-1-pyrophosphate ([3]; metabolite 5-phosphoribosyl-1-pyrophosphate, log2 fold change): 0.0000
- Log2(fold changes) 6-phospho-D-gluconate ([3]; metabolite 6-phospho-D-gluconate, log2 fold change): -0.1925
- Log2(fold change) HVDD ([3]; metabolite HVDD): -3.3896
- Log2(fold change) Hydroxyisocaproic acid ([3]; metabolite Hydroxyisocaproic acid): 0.0000
- Log2(fold change) IDP ([3]; metabolite IDP): 0.0000
- Log2(fold change) IMP ([3]; metabolite IMP): 0.2158
- Log2(fold change) Inositol ([3]; metabolite Inositol): 0.0000
- Log2(fold change) Isopentyl-PP ([3]; metabolite Isopentyl-PP): 0.0000
- Log2(fold change) L-arginino-succinate ([3]; metabolite L-arginino-succinate): 2.1877
- Log2(fold change) LD ([3]; metabolite LD): -0.1309
- Log2(fold change) Myristoyl/tetradecanoyl-CoA ([3]; metabolite Myristoyl/tetradecanoyl-CoA): 0.0000
- Log2(fold change) N-Acetyl-L-alanine ([3]; metabolite N-Acetyl-L-alanine): -0.6973
- Log2(fold change) N-acetyl-L-ornithine ([3]; metabolite N-acetyl-L-ornithine): -2.1230
- Log2(fold change) N-acetyl-glucosamine-1/6-phosphate ([3]; metabolite N-acetyl-glucosamine-1/6-phosphate): -0.2838
- Log2(fold change) N-acetyl-glutamate ([3]; metabolite N-acetyl-glutamate): 0.3598
- Log2(fold change) N-acetyl-glutamine ([3]; metabolite N-acetyl-glutamine): -3.0977
- Log2(fold change) N-carbamoyl-L-aspartate ([3]; metabolite N-carbamoyl-L-aspartate): -1.7500
- Log2(fold change) NAD+ ([3]; metabolite NAD+): -0.0354
- Log2(fold change) NADH ([3]; metabolite NADH): 0.0000
- Log2(fold change) NADP+ ([3]; metabolite NADP+): 0.1571
- Log2(fold change) NADPH ([3]; metabolite NADPH): 0.0000
- Log2(fold change) O-acetyl-L-serine ([3]; metabolite O-acetyl-L-serine): 0.0000
- Log2(fold change) Octoluse 8/1P ([3]; metabolite Octoluse 8/1P): 0.0000
- Log2(fold change) Octoluse Bisphosphate ([3]; metabolite Octoluse Bisphosphate): 0.2948
- Log2(fold change) PD ([3]; metabolite PD): -3.7912
- Log2(fold change) PE ([3]; metabolite PE): -2.1499
- Log2(fold change) PEE ([3]; metabolite PEE): -2.7511
- Log2(fold change) PEEK ([3]; metabolite PEEK): -0.8070
- Log2(fold change) PVNF ([3]; metabolite PVNF): -5.1804
- Log2(fold change) Pyroglutamic acid ([3]; metabolite Pyroglutamic acid): 0.0000
- Log2(fold change) Pyrophosphate ([3]; metabolite Pyrophosphate): 0.0000
- Log2(fold change) Ribose-5-phosphate ([3]; metabolite Ribose-5-phosphate): 0.0000
- Log2(fold change) S-adenosyl-L-homocysteine ([3]; metabolite S-adenosyl-L-homocysteine): -0.6013
- Log2(fold change) S-adenosyl-L-methioninamine ([3]; metabolite S-adenosyl-L-methioninamine): 0.0000
- Log2(fold change) S-adenosyl-L-methionine ([3]; metabolite S-adenosyl-L-methionine): 0.0000
- Log2(fold change) S-methyl-5'-thioadenosine ([3]; metabolite S-methyl-5'-thioadenosine): 0.0000
- Log2(fold change) SD ([3]; metabolite SD): -1.1672
- Log2(fold change) SDL ([3]; metabolite SDL): -3.6117
- Log2(fold change) SID ([3]; metabolite SID): -6.9124
- Log2(fold change) Sedoheptulose bisphosphate ([3]; metabolite Sedoheptulose bisphosphate): 0.7315
- Log2(fold change) Thiamine pyrophosphate ([3]; metabolite Thiamine pyrophosphate): 0.0000
- Log2(fold changes) UDP-D-glucose ([3]; metabolite UDP-D-glucose, log2 fold change): 0.2602
- Log2(fold changes) UDP-D-glucuronate ([3]; metabolite UDP-D-glucuronate, log2 fold change): 0.1434
- Log2(fold changes) UDP-N-acetyl-glucosamine ([3]; metabolite UDP-N-acetyl-glucosamine, log2 fold change): 0.1146
- Log2(fold changes) UDP ([3]; metabolite UDP, log2 fold change): 0.8739
- Log2(fold changes) UMP ([3]; metabolite UMP, log2 fold change): -0.0547
- Log2(fold changes) UTP ([3]; metabolite UTP, log2 fold change): -0.1611
- Log2(fold change) hydroxyphenylpyruvate ([3]; metabolite hydroxyphenylpyruvate): 0.0000
- Log2(fold change) hydroxyproline/Aminolevulinate ([3]; metabolite hydroxyproline/Aminolevulinate): 0.0631
- Log2(fold change) hypoxanthine ([3]; metabolite hypoxanthine): 0.0000
- Log2(fold change) indole ([3]; metabolite indole): 0.0000
- Log2(fold change) inosine ([3]; metabolite inosine): -0.4951
- Log2(fold change) isoleucine ([3]; metabolite isoleucine): 0.1119
- Log2(fold change) lactate ([3]; metabolite lactate): 0.0000
- Log2(fold change) leucine ([3]; metabolite leucine): -0.0578
- Log2(fold change) lysine ([3]; metabolite lysine): 0.0000
- Log2(fold change) malate ([3]; metabolite malate): -0.8281
- Log2(fold change) maleic acid ([3]; metabolite maleic acid): -0.8184
- Log2(fold change) methionine ([3]; metabolite methionine): 0.4693
- Log2(fold change) myo-inositol ([3]; metabolite myo-inositol): 0.0000
- Log2(fold change) nicotinamide mononucleotide ([3]; metabolite nicotinamide mononucleotide): 0.0000
- Log2(fold change) nicotinate ([3]; metabolite nicotinate): -0.1129
- Log2(fold change) ornithine ([3]; metabolite ornithine): 0.0000
- Log2(fold change) orotate ([3]; metabolite orotate): -0.7791
- Log2(fold change) orotidine-5'-phosphate ([3]; metabolite orotidine-5'-phosphate): -1.4071
- Log2(fold change) oxaloacetate ([3]; metabolite oxaloacetate): 0.0000
- Log2(fold change) p-aminobenzoate ([3]; metabolite p-aminobenzoate): 0.0000
- Log2(fold change) p-hydroxybenzoate ([3]; metabolite p-hydroxybenzoate): 0.0000
- Log2(fold change) pantothenate ([3]; metabolite pantothenate): 0.0969
- Log2(fold change) phenylalanine ([3]; metabolite phenylalanine): -0.1076
- Log2(fold change) phenylpyruvate ([3]; metabolite phenylpyruvate): 0.0000
- Log2(fold change) phosphoenolpyruvate ([3]; metabolite phosphoenolpyruvate): -0.6196
- Log2(fold change) prephenate ([3]; metabolite prephenate): 0.0000
- Log2(fold change) proline ([3]; metabolite proline): -0.3102
- Log2(fold change) pyridoxine ([3]; metabolite pyridoxine): 0.0000
- Log2(fold change) pyruvate ([3]; metabolite pyruvate): -0.3424
- Log2(fold change) riboflavin ([3]; metabolite riboflavin): 0.1087
- Log2(fold change) ribose ([3]; metabolite ribose): 0.0000
- Log2(fold change) ribose-phosphate ([3]; metabolite ribose-phosphate): -0.8253
- Log2(fold change) ribulose-5-phosphate ([3]; metabolite ribulose-5-phosphate): -0.7229
- Log2(fold change) serine ([3]; metabolite serine): 0.0219
- Log2(fold change) sn-glycerol-3-phosphate ([3]; metabolite sn-glycerol-3-phosphate): -0.8632
- Log2(fold change) succinate/Methylmalonic acid ([3]; metabolite succinate/Methylmalonic acid): 0.2169
- Log2(fold change) succinyl-CoA/methylmalonyl-CoA ([3]; metabolite succinyl-CoA/methylmalonyl-CoA): 0.0000
- Log2(fold change) taurine ([3]; metabolite taurine): 0.0000
- Log2(fold change) thiamine ([3]; metabolite thiamine): -0.8248
- Log2(fold change) threonine/homoserine ([3]; metabolite threonine/homoserine): -0.3688
- Log2(fold change) thymidine ([3]; metabolite thymidine): 0.0000
- Log2(fold changes) thymine ([3]; metabolite thymine, log2 fold change): 0.0000
- Log2(fold changes) trehalose-6-Phosphate ([3]; metabolite trehalose-6-Phosphate, log2 fold change): 0.0000
- Log2(fold changes) tryptophan ([3]; metabolite tryptophan, log2 fold change): -0.0448
- Log2(fold changes) tyrosine ([3]; metabolite tyrosine, log2 fold change): 0.2358
- Log2(fold changes) uridine ([3]; metabolite uridine, log2 fold change): 0.0000
